Laboratory results reported in patent US7582679B2, “Compositions containing solid ibuprofen concentrates and methods of making solid ibuprofen concentrates” (Pharmaceutics International Incorporated, priority 2006, dated 2009).

Experiments:
[1] = Comparative dissolution of hard gelatin capsules, USP apparatus type II, purified water; assay type: physicochemical; settings: size 1 hard gelatin capsule, 200 mg ibuprofen, paddle 50 rpm, 900 mL purified water
Experimental: Ibuprofen powder (supplied by BASF) was similarly filled manually into size 1 hard gelatin capsules to yield 200 mg ibuprofen per capsule.
Capsules were tested using a USP dissolution apparatus type II with a paddle speed of 50 rpm and 900 mL of purified water as a dissolution medium.

[2] = Angle of repose (flowability of powder); assay type: physicochemical
Experimental: The dried granules were lubricated with 0.25% w/w magnesium stearate and compressed using a Piccola 10 station rotary tablet press. The lubricated granules had angle of repose 26.56° compared with ibuprofen powder (supplied by BASF) having an angle of repose 48.01°. The resultant compressed tablets had hardness 6.1 kp and thickness 4.80 mm.

- % dissolution ([1]; 10 min): 2.2%
- % dissolution ([1]; 20 min): 5.9%
- % dissolution ([1]; 30 min): 9.2%
- angle of repose [2]: 48.01 °
Structure (SMILES): CC(C)Cc1ccc(C(C)C(=O)O)cc1 (stereo not shown) [ibuprofen powder, ibuprofen]
